Measurements published in US6624196B2, “Benzene butyric acids and their derivatives as inhibitors of matrix metalloproteinases” (Warner-Lambert Company, priority 1999, dated 2003).

Assays:
[1] = target: T1, MMP-2CD (gelatinase A catalytic domain) (Homo sapiens, UniProt P08253, DEL220-393); assay: Thiopeptolide substrate assay, gelatinase A catalytic domain; assay type: biochemical; conditions: for IC50: thiopeptolide substrate, catalytic domain; for inhibition at 10 µM: read-out: % inhibition of the enzyme MMP-2CD
T1 construct: Experiments were carried out with the catalytic domains of the proteinases
T1 sequence (P08253 with tags, fused parts or gaps DEL220-393): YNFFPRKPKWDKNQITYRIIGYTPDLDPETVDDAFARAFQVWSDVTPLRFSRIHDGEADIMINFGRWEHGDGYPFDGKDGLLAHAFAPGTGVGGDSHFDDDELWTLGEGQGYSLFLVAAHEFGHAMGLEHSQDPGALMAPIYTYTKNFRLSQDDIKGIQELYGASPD
Method: (§1) Experiments were carried out with the catalytic domains of the proteinases. […] IC50 values were determined using a thiopeptolide substrate, Ac-Pro-Leu-Gly-thioester-Leu-Leu-Gly-OEt (ye Q. -Z., Johnson L. L., Hupe D. J., and Baragi V., “Purification and Characterization of the Human Stromelysin Catalytic Domain Expressed in Escherichia coli,” Biochemistry, 1992;31:11231-11235; ye Q. -Z., Johnson L. L., yu A. E., and Hupe D., “Reconstructed 19 kDa catalytic domain of gelatinase A is an active proteinase,” Biochemistry, 1995;34:4702-4708.) MMP-13CD was expressed from a synthetic gene and purified from Escherichia coli cell culture according to a previously described method (ye Q. -Z., Johnson L. L., and Baragi V., “Gene synthesis and expression in E. coli for PUMP, a human matrix metalloproteinase,” Biochemical and Biophysical Research Communications, 1992;186:143-149.)

[2] = target: T2, MMP-3CD (stromelysin-1 catalytic domain) (Homo sapiens, UniProt P08254); assay: Thiopeptolide substrate assay, stromelysin-1 catalytic domain; assay type: biochemical; conditions: for IC50: thiopeptolide substrate, catalytic domain; for inhibition at 10 µM: read-out: % inhibition of the enzyme MMP-3CD
T2 construct: Experiments were carried out with the catalytic domains of the proteinases; made in house; host or cells: Escherichia coli
T2 sequence (P08254 100-272 limits assumed): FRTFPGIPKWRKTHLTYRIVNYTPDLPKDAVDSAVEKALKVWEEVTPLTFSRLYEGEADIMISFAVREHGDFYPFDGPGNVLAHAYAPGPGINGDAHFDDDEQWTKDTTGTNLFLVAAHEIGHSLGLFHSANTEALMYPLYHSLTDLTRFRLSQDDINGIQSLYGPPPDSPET
Method: as §1

[3] = target: T3, MMP-13CD (collagenase-3 catalytic domain) (Homo sapiens, UniProt P45452); assay: Thiopeptolide substrate assay, collagenase-3 catalytic domain; assay type: biochemical; conditions: for IC50: thiopeptolide substrate, catalytic domain; for inhibition at 10 µM: read-out: % inhibition of the enzyme MMP-13CD
T3 construct: Experiments were carried out with the catalytic domains of the proteinases; made in house; host or cells: Escherichia coli
Method: as §1

[4] = 10 μM concentration of inhibitor (footnote a, Examples 8 through 25)

Question: With O=C(O)CCC(=O)c1ccc(NC(=O)c2ccc(Cl)cc2)cc1 [Example 26, 4-[4-(4—Chloro-benzoylamino)-phenl]-4-oxo-butyric acid] as the molecule, how does the IC50 [1] read?
Answer: 120 nM

Question: What about the IC50 [2] of the same molecule?
Answer: 0.82 µM

Question: What about the IC50 [3] of the same molecule?
Answer: 24 µM

Question: With O=C(O)CCC(=O)Nc1ccc(C(=O)CCC(=O)O)cc1 [Example 35, 4-[4-(3—Carboxy-propionylamino)-phenyl]-4-oxo-butyric acid] as the molecule, how does the IC50 [1] read?
Answer: 38000 nM

Question: And the IC50 [2]?
Answer: 13 µM

Question: With O=C(O)CCC(=O)c1ccc(NC(=O)C=Cc2ccccc2)cc1 [Example 19, 4-[4-(Cinnamoylamino)-phenyl]-4-oxo-butyric acid] as the molecule, how does the inhibition at 10 µM [1, 4] read?
Answer: 86%

Question: And the inhibition at 10 µM [2, 4]?
Answer: 72%

Question: And the inhibition at 10 µM [3, 4]?
Answer: 9%

Question: With O=C(O)CCC(=O)c1ccc(NC(=O)c2cccnc2)cc1 [Example 8, 4-[4-(Pyridin-3-yl-carbonylamino)-phenyl]-4-oxo-butyric acid] as the molecule, how does the inhibition at 10 µM [1, 4] read?
Answer: 15%

Question: What about the inhibition at 10 µM [2, 4] of the same molecule?
Answer: 3%

Question: What about the inhibition at 10 µM [3, 4] of the same molecule?
Answer: 0%

Question: Which results are given for CCCCCCCCC(=O)Nc1ccc(C(=O)CCC(=O)O)cc1 [Example 9, 4-[4-(Nonanoylamino)-phenyl]-4-oxo-butyric acid]?
Answer: inhibition at 10 µM [1, 4]: 85%; inhibition at 10 µM [2, 4]: 75%; inhibition at 10 µM [3, 4]: 3%

Question: With O=C(O)CCC(=O)c1ccc(NC(=O)c2ccc(Br)cc2)cc1 [Example 20, 4-[4-(4-Bromo-benzoylamino)-phenyl]-4-oxo-butyric acid] as the molecule, how does the inhibition at 10 µM [1, 4] read?
Answer: 93%

Question: And the inhibition at 10 µM [2, 4]?
Answer: 81%

Question: And the inhibition at 10 µM [3, 4]?
Answer: 30%

Question: Which IC50 [1] does the source give for O=C(O)CCC(=O)c1ccc(NC(=O)c2ccc(F)cc2F)cc1 [Example 30, 4-[4-(2,4-Difluoro-benzoylamino)-phenyl]-4-oxo-butyric acid] here?
Answer: 930 nM

Question: What about the IC50 [2] of the same molecule?
Answer: 5 µM

Question: Which inhibition at 10 µM [1, 4] does the source give for CCCCCCCC(=O)Nc1ccc(C(=O)CCC(=O)O)cc1 [Example 10, 4-[4-(Octanoylamino)-phenyl]-4-oxo-butyric acid] here?
Answer: 79%

Question: And the inhibition at 10 µM [2, 4]?
Answer: 66%

Question: And the inhibition at 10 µM [3, 4]?
Answer: 8%

Question: Which results are given for O=C(O)CCC(=O)c1ccc(NC(=O)c2cccc(F)c2)cc1 [Example 4, 4-[4-(3-Fluoro-benzoylamino)-phenyl]-4-oxo-butyric acid]?
Answer: IC50 [1]: 1900 nM; IC50 [2]: 6.2 µM; melting point: 239 to 241 °C

Question: Which IC50 [2] does the source give for O=C(O)CCC(=O)c1ccc(NC(=O)C2CCCCC2)cc1 [Example 7, 4-[4-(Cyclohexane-carbonyllamino)-phenyl]-4-oxo-butyric acid] here?
Answer: 20 µM

Question: What about the melting point of the same molecule?
Answer: 195 to 198 °C

Question: What does the source list for CCc1ccc(C(=O)Nc2ccc(C(=O)CCC(=O)O)cc2)cc1 [Example 16, 4-[4-(4-Ethyl-benzoylamino)-phenyl]-4-oxo-butyric acid]?
Answer: inhibition at 10 µM [1, 4]: 97%; inhibition at 10 µM [2, 4]: 85%; inhibition at 10 µM [3, 4]: 60%

Question: With O=C(O)CCC(=O)c1ccc(NC(=O)c2cccs2)cc1 [Example 31, 4—oxo-4-[4-(thiophen-2-yl-carbonylamino)-phenyl]-butyric acid] as the molecule, how does the IC50 [1] read?
Answer: 130 nM

Question: What about the IC50 [2] of the same molecule?
Answer: 1.7 µM

Question: And the IC50 [3]?
Answer: 19 µM

Question: Which IC50 [2] does the source give for O=C(O)CCC(=O)c1ccc(NC(=O)CCc2ccccc2)cc1 [Example 34, 4—oxo-4-[4-(3-phenyl-propionylamino)-phenyl]-butyric acid] here?
Answer: 6.6 µM

Question: Which inhibition at 10 µM [1, 4] does the source give for COc1cc(OC)cc(C(=O)Nc2ccc(C(=O)CCC(=O)O)cc2)c1 [Example 24, 4-[4-(3,5-Dimethoxy-benzoylamino)-phenyl]-4-oxo-butyric acid] here?
Answer: 15%

Question: And the inhibition at 10 µM [2, 4]?
Answer: 4%

Question: And the inhibition at 10 µM [3, 4]?
Answer: 0%

Question: With “4-[4-(Benzoylamino)-phenyl]-4-oxo-butyric acid [Example 28]” as the molecule, how does the IC50 [1] read?
Answer: 110 nM

Question: What about the IC50 [2] of the same molecule?
Answer: 0.55 µM

Question: What about the IC50 [3] of the same molecule?
Answer: 17 µM

Question: For O=C(O)CCC(=O)c1ccc(NC(=O)c2ccco2)cc1 [Example 32, 4-[4-(2-Furoylamino)-phenyl]-4-oxo-butyric acid], which IC50 [1] is on record?
Answer: 910 nM

Question: What about the IC50 [2] of the same molecule?
Answer: 19 µM

Question: What does the source list for O=C(O)CCC(=O)c1ccc(NC(=O)c2ccc(Cl)c([N+](=O)[O-])c2)cc1 [Example 18, 4-[4-(4—Chloro-3-nitro-benzoylamino)-phenyl]-4-oxo-butyric acid]?
Answer: inhibition at 10 µM [1, 4]: 82%; inhibition at 10 µM [2, 4]: 38%; inhibition at 10 µM [3, 4]: 16%

Question: Which results are given for CCC(=O)Nc1ccc(C(=O)CCC(=O)O)cc1 [Example 11, 4—oxo-4-[4-(propionylamino)-phenyl]-butyric acid]?
Answer: inhibition at 10 µM [1, 4]: 46%; inhibition at 10 µM [2, 4]: 21%; inhibition at 10 µM [3, 4]: 9%

Question: Which results are given for O=C(O)CCC(=O)c1ccc(NC(=O)c2ccc(Cl)cc2Cl)cc1 [Example 13, 4-[4-(2,4-Dichloro-benzoylamino)-phenyl]-4-oxo-butyric acid]?
Answer: inhibition at 10 µM [1, 4]: 26%; inhibition at 10 µM [2, 4]: 11%; inhibition at 10 µM [3, 4]: 0%

Question: For CCCC(=O)Nc1ccc(C(=O)CCC(=O)O)cc1 [Example 22, 4-[4-(Butyrylamino)-phenyl]-4-oxo-butyric acid], which inhibition at 10 µM [1, 4] is on record?
Answer: 62%

Question: And the inhibition at 10 µM [2, 4]?
Answer: 35%

Question: And the inhibition at 10 µM [3, 4]?
Answer: 0%

Question: What does the source list for O=C(O)CCC(=O)c1ccc(NC(=O)c2cccc([N+](=O)[O-])c2)cc1 [Example 21, 4-[4-(3-Nitro-benzoylamino)-phenyl]-4-oxo-butyric acid]?
Answer: inhibition at 10 µM [1, 4]: 78%; inhibition at 10 µM [2, 4]: 23%; inhibition at 10 µM [3, 4]: 8%

Question: For “4-Hydroxyimino-4-[(4-methyl-benzoyl)amino-phenyl]-butyric acid [Example 2]”, which IC50 [1] is on record?
Answer: 410 nM

Question: And the IC50 [2]?
Answer: 1.1 µM

Question: What about the IC50 [3] of the same molecule?
Answer: 3.8 µM

Question: Which “% inhibition of the enzyme MMP-2CD” value [1, 4] does the source give for CCCCCCCCCC(=O)Nc1ccc(C(=O)CCC(=O)O)cc1 [Example 23] here?
Answer: 54%

Question: What about the “% inhibition of the enzyme MMP-3CD” value [2, 4] of the same molecule?
Answer: 39%

Question: What about the “% inhibition of the enzyme MMP-13CD” value [3, 4] of the same molecule?
Answer: 0%

Question: Which results are given for COc1ccccc1C(=O)Nc1ccc(C(=O)CCC(=O)O)cc1 [Example 25, 4-[4-(2-Methoxy-benzoylamino)-phenyl]-4-oxo-butyric acid]?
Answer: inhibition at 10 µM [1, 4]: 18%; inhibition at 10 µM [2, 4]: 13%; inhibition at 10 µM [3, 4]: 0%

Question: Which inhibition at 10 µM [1, 4] does the source give for O=C(O)CCC(=O)c1ccc(NC(=O)CCCc2ccc(Br)cc2)cc1 [Example 14, 4-{4-[4-(4-Bromo-phenyl)-butyrylamino]-phenyl}-4-oxo-butyric acid] here?
Answer: 26%

Question: And the inhibition at 10 µM [2, 4]?
Answer: 48%

Question: What about the inhibition at 10 µM [3, 4] of the same molecule?
Answer: 7%

Question: Which IC50 [1] does the source give for “4-[4-(Carboxy-acetylamino)-phenyl]-4-oxo-butyric acid [Example 36]” here?
Answer: 41000 nM

Question: What about the IC50 [2] of the same molecule?
Answer: 17 µM

Question: Which results are given for O=C(O)CCC(=O)c1ccc(NC(=O)c2ccc(F)cc2)cc1 [Example 6, 4-[4-(4-Fluoro-benzoylamino)-phenyl]-4-oxo-butyric acid]?
Answer: IC50 [1]: 1700 nM; IC50 [2]: 2.8 µM; IC50 [3]: 85 µM; melting point: 253 to 255 °C

Question: Which IC50 [1] does the source give for O=C(O)CCC(=O)c1ccc(NC(=O)c2ccccc2F)cc1 [Example 5, 4-[4-(2-Fluoro-benzoylamino)-phenyl]-4-oxo-butyric acid] here?
Answer: 1900 nM

Question: What about the IC50 [2] of the same molecule?
Answer: 9.8 µM

Question: And the melting point?
Answer: 191 to 193 °C

Question: With CCCCOc1ccc(C(=O)Nc2ccc(C(=O)CCC(=O)O)cc2)cc1 [Example 17, 4-[4-(4-Butoxy-benzoylamino)-phenyl]-4-oxo-butyric acid] as the molecule, how does the inhibition at 10 µM [1, 4] read?
Answer: 97%

Question: And the inhibition at 10 µM [2, 4]?
Answer: 78%

Question: What about the inhibition at 10 µM [3, 4] of the same molecule?
Answer: 65%

Question: What does the source list for COc1cccc(C(=O)Nc2ccc(C(=O)CCC(=O)O)cc2)c1 [Example 12, 4-[4-(3-Methoxy-benzoylamino)-phenyl]-4-oxo-butyric acid]?
Answer: inhibition at 10 µM [1, 4]: 75%; inhibition at 10 µM [2, 4]: 31%; inhibition at 10 µM [3, 4]: 11%

Question: With CCCCC(=O)Nc1ccc(C(=O)CCC(=O)O)cc1 [Example 3, 4—oxo-4-(4-pentanoylamino-phenyl)-butyric acid] as the molecule, how does the IC50 [1] read?
Answer: 9500 nM

Question: What about the IC50 [2] of the same molecule?
Answer: 8.15 µM

Question: And the melting point?
Answer: 153 to 155 °C

Question: Which IC50 [1] does the source give for Cc1ccc(C(=O)Nc2ccc(C(=O)CCC(=O)O)cc2)cc1 [Example 1, 4-[4-(4-Methyl-benzoylamino)-phenyl]-4-oxo-butyric acid] here?
Answer: 220 nM

Question: What about the IC50 [2] of the same molecule?
Answer: 1.55 µM

Question: And the IC50 [3]?
Answer: 5.8 µM

Question: Which inhibition at 10 µM [1, 4] does the source give for CCCCCCC(=O)Nc1ccc(C(=O)CCC(=O)O)cc1 [Example 15, 4-[4-(Heptanoylamino)-phenyl]-4-oxo-butyric acid] here?
Answer: 83%

Question: And the inhibition at 10 µM [2, 4]?
Answer: 70%

Question: And the inhibition at 10 µM [3, 4]?
Answer: 11%

Question: For O=C(O)CCC(=O)c1ccc(NC(=O)c2ccc([N+](=O)[O-])cc2)cc1 [Example 29, 4-[4-(4-Nitro-benzoylamino)-phenyl]-4-oxo-butyric acid], which IC50 [1] is on record?
Answer: 460 nM

Question: And the IC50 [2]?
Answer: 2.4 µM

Question: And the IC50 [3]?
Answer: 40 µM

Question: For COc1ccc(C(=O)Nc2ccc(C(=O)CCC(=O)O)cc2)cc1 [Example 27, 4-[4-(4-Methoxy-benzoylamino)-phenyl]-4-oxo-butyric acid], which IC50 [1] is on record?
Answer: 70 nM

Question: What about the IC50 [2] of the same molecule?
Answer: 0.34 µM

Question: What about the IC50 [3] of the same molecule?
Answer: 9.8 µM

Question: For O=C(O)CCC(=O)c1ccc(NC(=O)Cc2ccccc2)cc1 [Example 33, 4—oxo-4-[4-(phenyl-acetylamino)-phenyl]-butyric acid], which IC50 [1] is on record?
Answer: 52000 nM

Question: What about the IC50 [2] of the same molecule?
Answer: 24 µM
